Molecules are shown by their SMILES. Entries after “also recorded” stand apart in the source; their conditions may differ.

Usually EC50 stands for the midpoint of the concentration-response curve.

The subject of data set [1] is RG2 glioma cells. The experiment in a line: Autophagic flux assay: LC3-I to LC3-II conversion in the presence of bafilomycin-A1, western blot. The class given is cell-based, rat. The settings on record: for stimulation of autophagy / autophagic flux (LC3-II increase in presence of bafilomycin-A1): 4 h, 50 nM bafilomycin-A1; for potency of autophagy stimulation relative to LKE (ratio of LC3-II band densities): western blot densitometry. As for the experimental part: In the assay, cells are treated with subtoxic concentrations of bafilomycin-A, which blocks lysosomal acidification. This prevents autophagosome fusion with lysosomes at a specific point. […] Then, autophagy flux is measured by the conjugation of phosphatidylethanolamine to LC3-I, yielding an electrophoretically separable LC3-II. LC3-II acts as a link between nascent autophagosomes and cargo being directed into these structures. The autophagy intermediate protein LC3-II (a phosphatidylethanolamine-conjugated form of LC3-I) is measured by western blot. An autophagy enhancer will increase LC3-II in the presence of bafilomycin, whereas a compound that inhibits autophagy completion will not do so. Thus, the LC3A-I to LC3A-II conversion in the presence of bafilomycin-A1 constitutes a valid measure of autophagy.
Autophagy is a complex process involving many different protein components, but predominant amongst its regulatory elements are the mammalian target of rapamycin complex-1 (mTORC1) and unc-51-like kinase-1 (ULK1, FIG. 14). mTORC1 is itself a kinase that inhibits ULK1. When nutrients and cell energy are limiting, mTORC1 is suppressed by the coordinated actions of tuberous sclerosis complex (TSC) proteins 1 and 2 (TSC1/2) and Rheb (Ras homolog enriched in the brain). This allows disinhibition of ULK1, which then associates with beclin-1 protein to form pre-autophagosomal structures. Autophagosomes mature in a process marked by phosphatidylethanolamine conjugation to microtubule associated protein 1 light chain 3 (LC3-I→LC3-II conversion). After lysosomal fusion, the autophagy components are turned over and the cycle completes. One of the most reliable ways to determine whether a treatment increases true autophagy flux is to measure LC3-I to LC3-II conversion in the absence and presence of the vacuolar ATPase inhibitor bafilomycin-A1. Bafilomycin neutralizes lysosomal pH, preventing autophagosome-lysosomal fusion, and traps LC3-II at a point prior to its turnover in mature autophagolysosomes.
The cells were then incubated for an additional 4 h. At termination, the cell culture medium was removed, cells were washed with PBS and lysed on ice in Pierce RIPA buffer containing protease and phosphatase inhibitors.
An increase in the intensity of this band in the presence of bafilomycin-A1 indicates increased autophagic flux.
RG2 glioma cells (American Tissue Type Collection, ATTC, Rockville Md. USA) were treated for 4 h with 50 nM bafilomycin-A1 (previously dissolved to 1000× final concentration in dimethylsulfoxide). Thirty minutes after addition of bafilomycin, cells were treated with test agents at 100× final concentration. Cells were lysed in RIPA buffer containing protease and phosphatase inhibitors. Protein concentration was assayed and normalized to constant values (typically 5-7 mg/mL). Proteins were electrophoresed across 4-20% polyacrylamide gels and wet blotted onto polyvinylidine difluoride (PVDF) membranes. Proteins were blotted with commercially available antibodies against LC3.
A general note: A western blot detects proteins with antibodies after separation by electrophoresis.

In the next data set the test system is EOC-20 microglia. Put plainly: TNFα-stimulated microglial M1 activation, nitrite accumulation in culture medium. It counts as cell-based. The settings on record: cytokine (TNFα)-stimulated EOC-20 microglia, side-by-side. As for the experimental part:
Reaction completion was monitored by thin-layer chromatography and product identity was confirmed by mass spectrometry (FIG. 31A). […] M1 activation of EOC-20 cells was assessed by measuring TNFα-stimulated nitrite production.

The subject of data set [2] is RG2 glioma cells. The experiment in a line: Proliferative capacity of glioma cells, tetrazolium reduction assay. It counts as cell-based, rat. As for the experimental part:
FIG. 37: Graph showing a reduction in proliferative capacity of RG2 glioma cells exposed to 2-n-hexyl-LKE-P. Glioma cells were plated at low density and treated with the indicated concentration of compound for 24 or 48 h, at which time relative cell number was estimated using a tetrazolium reduction assay.
Biomarkers of autophagy have been positively correlated with relatively better prognosis (longer patient lifespan) in humans suffering from high grade glioma. Accordingly, phosphonate analogs were tested for ability to reduce replicative capacity in RG2 glioma cells wherein the compounds increase autophagy. Cells were plated at low density (approximately 25,000 cells/[…]) using general cell culture methods, and treated with logarithmic dilutions of test agent. After 24 or 48 hours, cell number was estimated by a tetrazolium reduction assay using a commercially available kit (Promega Aqueous OneStep™). […] By 48 h the cells had largely achieved confluence and became somewhat contact inhibited, thus reducing the difference between control and treatment groups.

Data set [3] is described as follows: Stability of the isolated solid under high vacuum. It counts as physicochemical. The conditions noted are these: isolated white solid, at least overnight. As for the experimental part:
FIGS. 15A-15B show the ^1H NMR spectrum of 2-butyl-LK-P, with and without peak assignments. FIGS. 16A-16B show the ^1H NMR spectrum of 2-butyl-LK-P, with integration values and with and without peak assignments. ^1H NMR (CDCl3) δ 3.96 (br. s., 1H), 3.05 (d, J=12.4 Hz, 1H), 2.84-2.66 (m, 1H), 2.36 (br. s., 2H), 1.56-1.32 (m, 2H), 1.24 (d, J=6.2 Hz, 2H), 0.89-0.77 (m, 3H); HRMS (ESI) m/z calcd for C9H17NO5PS [M+H]^+ 282.0565, found 282.0645.
Briefly, to a solution of DEIVP (500.0 mg, 2.222 mmol), in a biotage microwave vial, was added bromotrimethylsilane (1.333 mL, […]). The tube was purged with argon, covered and heated at 400 W for 10 min. The contents of the vial were transferred to a round bottom flask, the vial was washed with dichloromethane (3×3 mL) which was transferred to the flask. The solvent and excess bromotrimethylsilane were removed in vacuo. To the flask was added dichloromethane (10 mL), which was subsequently removed in vacuo to aid in the removal of any residual bromotrimethylsilane. To the flask was added dichloromethane (9 mL) and, to this solution, with stirring, was added a solution of bromine ([…]) in dichloromethane (3 mL). The resultant solution was heated to reflux for 15 min and the solvent was removed in vacuo. […]

The test system of data set [4] is SOD1^G93A mouse model of amyotrophic lateral sclerosis. The conditions noted are these: cited from earlier work.
The subject of a further data set is ULK1 system. Put plainly: ULK1 / ULK1(p757) autophagy stimulation assay (mTOR pathway), western blot. The conditions noted are these: RG2 cells, 24 h; read-out: EC50 on the ULK1 system (ULK1 increase and ULK1(p757) decrease). The class given is cell-based, rat. The text has this: This technique has been documented in the literature for use in the comparison of the potency of individual compounds, relative to a recognized standard, and this technique has become a standard method of autophagy analysis. In addition to quantitating the stimulation of autophagy for the compounds, relative to LKE, because it is cell based, this assay also provides evidence that the compounds can permeate cell membranes. This affords valuable information for the comparison of individual compounds to stimulate autophagy, and will allow them to be ranked for use in the determination of a structure activity relationship (SAR). […] For validation purposes, a second, quantitative autophagy stimulation assay was utilized. […] This second assay provides validation for the LC3 assay.
Western Blotting: The proteins were electrophoresed and wet-blotted to polyvinylidine difluoride membranes, blocked overnight in 4% bovine serum albumin, and developed using antibodies obtained from Cell Signaling Technology (LC3A: cat #. 4599; ULK1: cat #. 8054, ULK1(p757): cat #. 6880).

Data set [5] deals with permanent middle cerebral artery occlusion (pMCAO). The settings on record: after pMCAO; cited from earlier work.
The next data set relates to C6 glioma tumor. The settings on record: C6 glioma xenograft into rat cortices; cited from earlier work.
In the next data set the test system is microglia. The conditions noted are these: cell systems; cited from earlier work.
The subject of a further data set is neurons. The conditions noted are these: glutamate toxicity; cited from earlier work.
For another data set, the system named is cells. The settings on record: H2O2 or t-butyl hydroperoxide; cited from earlier work.
The test system of a further data set is CRMP2. The settings on record: CRMP2-dependent fashion; cited from earlier work.
For data set [6] the following is noted: measurement of brain LKE levels and animal studies.
Data set [7] relates to 3×Tg-AD mouse model of Alzheimer's disease. The settings on record: cited from earlier work.
A further data set concerns SHSY5Y neurons. The conditions noted are these: cited from earlier work.
The conditions of data set [8]: cell systems and C. elegans; cited from earlier work.

In the case of `O=C(O)C1=CSC[C@@H](C(=O)O)N1` [LK, (5R)-3,5,-dicarboxy-1-thia-4-aza-2-cyclohexene, reference compound], the “stimulation of autophagy / autophagic flux (LC3-II increase in presence of bafilomycin-A1)” value in the data set with RG2 glioma cells [1] is “increase autophagic flux”.

In the case of `CCOC(=O)[C@@H]1CSC(C(C)N2CCCC2=O)=C(C(=O)O)N1` (single isomer, unassigned) [NVP-LKE], in the data set with RG2 glioma cells [1], the “stimulation of autophagy / autophagic flux (LC3-II increase in presence of bafilomycin-A1)” value is recorded as “stimulates autophagy in RG2 cells” and the “potency of autophagy stimulation relative to LKE (ratio of LC3-II band densities)” value is recorded as “better autophagy activation than LKE; also recorded: more potent autophagy stimulator than LKE”. Besides, in the data set on EOC-20 microglia, the “suppression of nitric oxide (nitrite) production / microglial activation relative to LKE” value is “maintains or gains potency over LKE; also recorded: equal or superior to LKE; also recorded: as potent or more potent than LKE”.

As for `CCCCCCC1=C(P(=O)(O)O)N[C@H](C(=O)OCC)CS1` [2-n-hexyl-LKE-P], in the data set with RG2 glioma cells [2] (48 h), the cell number entry is “dose-dependent reduction in the cell number”. The replication of cultures entry with RG2 glioma cells [2] (first 24 h) is listed as “replicated more slowly”.

In the case of `CC(C)C1=C(P(=O)(O)O)N[C@H](C(=O)O)CS1` [2-isopropyl-LK-P, 2-isopropyl lanthionine ketimine phosphonate], the “stability to high vacuum pressures” value in data set [3] is on record as “stable to high vacuum pressures at least overnight without visual or spectral decomposition”. Moreover, in the data set with RG2 glioma cells [1], the “stimulation of autophagy / autophagic flux (LC3-II increase in presence of bafilomycin-A1)” value is “stimulates autophagy in RG2 cells at low micromolar concentrations; also recorded: enter into cells and stimulate autophagy to varying degrees; also recorded: increase autophagic flux”; the “potency of autophagy stimulation relative to LKE (ratio of LC3-II band densities)” value is recorded as “comparable activity”. Also, the “potency on autophagic flux relative to LK” value with RG2 glioma cells [1] (at 10 μM) is “clearly more potent at 10 μM than LK was”. For the same molecule, in the data set on RG2 glioma cells [1] (at 10 mM (FIG. 6 legend)), the “potency on autophagic flux relative to LK” value is listed as “clearly was more potent at 10 mM than was LK”. In addition, the “potency of autophagy stimulation relative to LK” value with RG2 glioma cells [1] (visual inspection of western blot) was “much more potent stimulator of autophagy than LK”.

Turning to `CCOC(=O)C1CSC=C(C(=O)O)N1` (stereo not shown) [LKE, lanthionine ketimine-ethyl ester], the “lifespan and motor function” value in data set [4] was “increases lifespan and slows decline of motor function”. In the data set with ULK1 system, the 50% effective concentration (EC50) is about 50 nM. Further, the “infarct volume and functional recovery” value in [5] is “decreases infarct volume and improves functional recovery”. Also, the tumor growth entry with C6 glioma tumor was “slows growth of C6 glioma tumor”. The “stimulation of autophagy / autophagic flux (LC3-II increase in presence of bafilomycin-A1)” value with RG2 glioma cells [1] is “enter into cells and stimulate autophagy to varying degrees”. Moreover, the anti-neuroinflammatory activity entry with microglia was “decreasing microglial response to inflammatory cytokines”. Moreover, in the data set with neurons, the anti-excitotoxin activity result is given as “protecting neurons from glutamate toxicity”. Moreover, in the data set with cells, the antioxidant activity entry is on record as “protecting cells against H2O2 or t-butyl hydroperoxide”. For the same molecule, the neurotrophic activity entry in the data set on CRMP2 is “potentiating growth factor-dependent neurite growth”. The βββ penetrability entry in data set [6] is reported as “good βββ penetrability”. In data set [7], the “amyloid burden, phospho-tau, microglial activation, cognitive decline” value was “decreases amyloid burden inside neurons and in plaques, decreases phospho-tau accumulation, decreases microglial activation, and slows cognitive decline”. The amyloid reducing activity result in the data set with SHSY5Y neurons is “decreasing production of native Aβ(1-40)”. The axonal transport enhancement result in [8] was “potentiating anterograde trafficking and delivery of synaptic proteins to the distal axon”.

Turning to `CC(C)C1=C(P(=O)(O)O)NCCS1` [2-isopropyl AECK-P, AminoEthyl Cysteine Ketimine-Phosphonate], in the data set on RG2 glioma cells [1], the “stimulation of autophagy / autophagic flux (LC3-II increase in presence of bafilomycin-A1)” value was “can enter cells to elicit a response” and the “potency of autophagy stimulation relative to LKE (ratio of LC3-II band densities)” value was “comparable activity”.

For the molecule `CCCCC1=C(P(=O)(O)O)N[C@H](C(=O)O)CS1`, the “stability to high vacuum pressures” value in [3] is “stable to high vacuum pressures at least overnight without visual or spectral decomposition”. The “stimulation of autophagy / autophagic flux (LC3-II increase in presence of bafilomycin-A1)” value in the data set on RG2 glioma cells [1] was “enter into cells and stimulate autophagy to varying degrees”. The “potency of autophagy stimulation relative to LKE (ratio of LC3-II band densities)” value with RG2 glioma cells [1] is given as “comparable activity”; with RG2 glioma cells [1] (listed as 2-butyl-LK-P), “more effective at inducing autophagic flux than, inter alia, LK-E”.

(Values after US11084836B2, “Compositions useful in therapy of autophagy-related pathologies, and methods of making and using the same” (The University of Toledo, priority 2016, dated 2021).)
